pEC50: −log10 of the molar value.
Key:
[1] = target: T1, cloned human M4 receptor (human Muscarinic receptor subtype 4) (Homo sapiens, UniProt P08173); experiment: hM4 receptor GTPγS binding; assay type: biochemical; conditions: CHO cell membranes expressing hM4; [35S]GTPγS binding; read-out: hM4 EC50
T1 construct: purchased Perkin-Elmer RBHM4M; host or cells: Chinese hamster ovary cells (CHO) membranes
T1 sequence (P08173 1-479): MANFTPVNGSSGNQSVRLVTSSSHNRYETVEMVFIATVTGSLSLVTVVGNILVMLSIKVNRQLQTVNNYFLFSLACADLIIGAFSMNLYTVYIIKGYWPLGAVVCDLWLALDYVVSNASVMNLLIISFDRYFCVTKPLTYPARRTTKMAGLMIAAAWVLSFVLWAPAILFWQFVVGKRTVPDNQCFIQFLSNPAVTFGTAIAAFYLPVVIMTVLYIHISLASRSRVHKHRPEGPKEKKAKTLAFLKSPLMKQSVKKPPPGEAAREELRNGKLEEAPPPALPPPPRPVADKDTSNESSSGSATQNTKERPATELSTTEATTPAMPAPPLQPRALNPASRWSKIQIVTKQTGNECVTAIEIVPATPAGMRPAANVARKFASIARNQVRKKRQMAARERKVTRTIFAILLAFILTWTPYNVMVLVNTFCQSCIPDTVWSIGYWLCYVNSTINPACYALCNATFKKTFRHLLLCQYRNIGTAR
Method: hM4 Receptor GTPγS Binding
Membranes produced from Chinese hamster ovary cells (CHO) expressing the cloned human M4 receptor (human Muscarinic receptor subtype 4, gene bank access NM_000741), are obtained from Perkin-Elmer (RBHM4M). The membranes are thawed at 37° C., passed 3 times through a 23-gauge blunt-end needle, diluted in the GTPγS binding buffer (50 mM Hepes, 20 mM NaOH, 100 mM NaCl, 1 mM EDTA, 5 mM MgCl2, pH 7.4, 100 μM DTT). The EC50, IC50 and Emax of the compounds of the invention are evaluated from 10-point dose-response curves (three fold concentration range) done in 60 μl in 384-well non-specific binding surface plate (Corning). Ten microliters from the dose-response curves plate (5× concentration) are transferred to another 384 well plate containing 25 μl of the following: 10 μg of hM4 membranes, 500 μg of Flashblue beads (Perkin-Elmer) and GDP 40 μM. An additional 15 μl containing 3.3× (60,000 dpm) of GTPγ^35S (0.4 nM final) are added to the wells resulting in a total well volume of 50 μl. Basal and maximal stimulated [^35S]GTPγS binding are determined in absence and presence of 30 μM final of acetylcholine agonist. The membranes/beads mix are pre-incubated for 15 minutes at room temperature with 40 μM GDP prior to distribution in plates (20 μM final). The reversal of acetylcholine-induced stimulation (10 μM final) of [^35S]GTPγS binding is used to assay the antagonist properties (IC50) of the compounds. The plates are incubated for 60 minutes at room temperature then centrifuged at 400 rpm for 5 minutes. The radioactivity (cpm) is counted in a Trilux (Perkin-Elmer).
(§1) Values of EC50, IC50 and Emax are obtained using sigmoidal fits of a non-linear curve-fitting program (XLfit version 4.2.2 Excel add-in version 4.2.2 build 18 math 1Q version 2.1.2 build 18) of percent stimulated [^35S]GTPγS binding vs. log(molar ligand). All pEC50 and plC50 values are reported as arithmetic means ±standard error of mean of ‘n’ independent experiments.

[2] = target: T2, cloned human M2 receptor (human Muscarinic receptor subtype 2) (Homo sapiens, UniProt P08172); experiment: hM2 receptor GTPγS binding; assay type: biochemical; conditions: CHO cell membranes expressing hM2; [35S]GTPγS binding; read-out: hM2 EC50
T2 construct: purchased Perkin-Elmer RBHM2M; host or cells: Chinese hamster ovary cells (CHO) membranes
T2 sequence (P08172 1-466): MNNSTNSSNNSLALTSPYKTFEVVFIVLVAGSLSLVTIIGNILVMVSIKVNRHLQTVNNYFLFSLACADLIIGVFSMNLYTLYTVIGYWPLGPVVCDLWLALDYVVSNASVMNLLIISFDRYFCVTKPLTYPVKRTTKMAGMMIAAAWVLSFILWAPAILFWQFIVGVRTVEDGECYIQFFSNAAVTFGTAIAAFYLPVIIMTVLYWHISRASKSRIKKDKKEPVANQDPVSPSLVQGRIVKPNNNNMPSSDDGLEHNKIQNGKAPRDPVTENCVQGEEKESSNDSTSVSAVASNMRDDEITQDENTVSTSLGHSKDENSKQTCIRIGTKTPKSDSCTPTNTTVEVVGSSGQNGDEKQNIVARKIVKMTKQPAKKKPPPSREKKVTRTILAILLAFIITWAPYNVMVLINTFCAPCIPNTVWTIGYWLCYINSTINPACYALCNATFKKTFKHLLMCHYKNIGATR
Method: hM2 Receptor GTPγS Binding
Membranes produced from Chinese hamster ovary cells (CHO) expressing the cloned human M2 receptor (human Muscarinic receptor subtype 2, gene bank access NM_000739), are obtained from Perkin-Elmer (RBHM2M). The membranes are thawed at 37° C., passed 3 times through a 23-gauge blunt-end needle, diluted in the GTPγS binding buffer (50 mM Hepes, 20 mM NaOH, 100 mM NaCl, 1 mM EDTA, 5 mM MgCl2, pH 7.4, 100 μM DTT). The EC50, IC50 and Emax of the compounds of the invention are evaluated from 10-point dose-response curves (three fold concentration range) done in 60 μl in 384-well non-specific binding surface plate (Corning). Ten microliters from the dose-response curves plate (5× concentration) are transferred to another 384 well plate containing 25 μl of the following: 5 μg of hM2 membranes, 500 μg of Flashblue beads (Perkin-Elmer) and GDP 25 μM. An additional 15 μl containing 3.3× (60,000 dpm) of GTPγ^35S (0.4 nM final) are added to the wells resulting in a total well volume of 50 μl. Basal and maximal stimulated [^35S]GTPγS binding are determined in absence and presence of 30 μM final of acetylcholine agonist. The membranes/beads mix are pre-incubated for 15 minutes at room temperature with 25 μM GDP prior to distribution in plates (12.5 μM final). The reversal of acetylcholine-induced stimulation (2 μM final) of [^35S]GTPγS binding is used to assay the antagonist properties (IC50) of the compounds. The plates are incubated for 60 minutes at room temperature then centrifuged at 400 rpm for 5 minutes. The radioactivity (cpm) is counted in a Trilux (Perkin-Elmer).
as §1

Compound	pEC50 [1]	pEC50 [2]
COC(=O)N1CCC(C)(N2CCC(n3c(=O)[nH]c4ccccc43)CC2)C1 (racemic) [Example 2, methyl 3-methyl-3-(4-(2-oxo-2,3-dihydro-1H-benzo[d]imidazol-1-yl)piperidin-1-yl)pyrrolidine-1-carboxylate]	5.60	6.06
CC1(N2CCC(n3c(=O)[nH]c4ccccc43)CC2)CCN(C(=O)OCCF)C1 (racemic) [Example 4, 2-fluoroethyl 3-methyl-3-(4-(2-oxo-2,3-dihydro-1H-benzo[d]imidazol-1-yl)piperidin-1-yl)pyrrolidine-1-carboxylate]	5.36	5.73
CCOC(=O)N1CCC(C)(N2CCC(n3c(=O)[nH]c4cc(F)ccc43)CC2)C1 (single isomer, unassigned) [Example 6, ethyl 3-(4-(5-fluoro-2-oxo-2,3-dihydro-1H-benzo[d]imidazol-1-yl)piperidin-1-yl)-3-methylpyrrolidine-1-carboxylate]	5.76	6.23
CCOC(=O)N1CCC(C)(N2CCC(n3c(=O)[nH]c4cc(F)ccc43)CC2)C1 (single isomer, unassigned) [Example 7, ethyl 3-(4-(5-fluoro-2-oxo-2,3-dihydro-1H-benzo[d]imidazol-1-yl)piperidin-1-yl)-3-methylpyrrolidine-1-carboxylate]	< 4.61	5.35
CCOC(=O)N1CCC(C)(N2CCC(n3c(=O)[nH]c4cc(C)ccc43)CC2)C1 (single isomer, unassigned) [Example 12, ethyl 3-methyl-3-(4-(5-methyl-2-oxo-2,3-dihydro-1H-benzo[d]imidazol-1-yl)piperidin-1-yl)pyrrolidine-1-carboxylate]	5.70	6.11
Cc1ccc2c(c1)[nH]c(=O)n2C1CCN(C2(C)CCN(C(=O)OC(C)C)C2)CC1 (single isomer, unassigned) [Example 14, isopropyl 3-methyl-3-(4-(5-methyl-2-oxo-2,3-dihydro-1H-benzo[d]imidazol-1-yl)piperidin-1-yl)pyrrolidine-1-carboxylate]	< 4.05	5.82
Cc1ccc2c(c1)[nH]c(=O)n2C1CCN(C2(C)CCN(C(=O)OC(C)C)C2)CC1 (single isomer, unassigned) [Example 15, isopropyl 3-methyl-3-(4-(5-methyl-2-oxo-2,3-dihydro-1H-benzo[d]imidazol-1-yl)piperidin-1-yl)pyrrolidine-1-carboxylate]	< 4.05	5.55
CC#CCOC(=O)N1CCC(C)(N2CCC(n3c(=O)[nH]c4ccc(C)cc43)CC2)C1 (single isomer, unassigned) [Example 20, but-2-ynyl 3-methyl-3-(4-(6-methyl-2-oxo-2,3-dihydro-1H-benzo[d]imidazol-1-yl)piperidin-1-yl)pyrrolidine-1-carboxylate]	7.01	7.21
CC#CCOC(=O)N1CCC(C)(N2CCC(n3c(=O)[nH]c4cc(C)ccc43)CC2)C1 (single isomer, unassigned) [Example 21, but-2-ynyl 3-methyl-3-(4-(5-methyl-2-oxo-2,3-dihydro-1H-benzo[d]imidazol-1-yl)piperidin-1-yl)pyrrolidine-1-carboxylate]	6.58	7.03
CC#CCOC(=O)N1CCC(C)(N2CCC(n3c(=O)[nH]c4cc(F)ccc43)CC2)C1 (single isomer, unassigned) [Example 22, but-2-ynyl 3-(4-(5-fluoro-2-oxo-2,3-dihydro-1H-benzo[d]imidazol-1-yl)piperidin-1-yl)-3-methylpyrrolidine-1-carboxylate]	6.38	6.90
COC(=O)N1CCC(C)(N2CCC(n3c(=O)[nH]c4cc(F)ccc43)CC2)C1 (single isomer, unassigned) [Example 23, methyl 3-(4-(5-fluoro-2-oxo-2,3-dihydro-1H-benzo[d]imidazol-1-yl)piperidin-1-yl)-3-methylpyrrolidine-1-carboxylate]	5.41	6.18
CC1(N2CCC(n3c(=O)[nH]c4cc(F)ccc43)CC2)CCN(C(=O)OCCF)C1 (single isomer, unassigned) [Example 24, 2-fluoroethyl 3-(4-(5-fluoro-2-oxo-2,3-dihydro-1H-benzo[d]imidazol-1-yl)piperidin-1-yl)-3-methylpyrrolidine-1-carboxylate]	5.29	5.87
C#CCOC(=O)N1CCC(C)(N2CCC(n3c(=O)[nH]c4cc(F)ccc43)CC2)C1 (single isomer, unassigned) [Example 25, prop-2-ynyl 3-(4-(5-fluoro-2-oxo-2,3-dihydro-1H-benzo[d]imidazol-1-yl)piperidin-1-yl)-3-methylpyrrolidine-1-carboxylate]	6.16	6.84
Cc1ccc2[nH]c(=O)n(C3CCN(C4(C)CCN(C(=O)OCCF)C4)CC3)c2c1 (single isomer, unassigned) [Example 26, 2-fluoroethyl 3-methyl-3-(4-(6-methyl-2-oxo-2,3-dihydro-1H-benzo[d]imidazol-1-yl)piperidin-1-yl)pyrrolidine-1-carboxylate]	6.07	6.84
Cc1ccc2c(c1)[nH]c(=O)n2C1CCN(C2(C)CCN(C(=O)OCCF)C2)CC1 (single isomer, unassigned) [Example 27, 2-fluoroethyl 3-methyl-3-(4-(5-methyl-2-oxo-2,3-dihydro-1H-benzo[d]imidazol-1-yl)piperidin-1-yl)pyrrolidine-1-carboxylate]	5.51	6.21
Cc1ccc2[nH]c(=O)n(C3CCN(C4(C)CCN(C(=O)OCCF)C4)CC3)c2c1 (single isomer, unassigned) [Example 28, 2-fluoroethyl 3-methyl-3-(4-(6-methyl-2-oxo-2,3-dihydro-1H-benzo[d]imidazol-1-yl)piperidin-1-yl)pyrrolidine-1-carboxylate]	5.08	5.62

Reference: patent US20090221642A1, “MUSCARINIC RECEPTOR AGONISTS, COMPOSITIONS, METHODS OF TREATMENT THEREOF, AND PROCESSES FOR PREPARATION THEREOF-176” (AstraZeneca AB, priority 2008, published 2009)
